Where no end group is shown, it is not given here.
Tested on: filter-sterile supernatant of Rhodanobacter R179 (secreted peptidase(s))
Experiment: Peptide quantification by mass spectrometry after incubation in cell-free supernatant of Rhodanobacter R179
Assay type: in vitro ADME
Settings: for peptide detected by mass spectrometry after incubation in supernatant of the R179 dssAB mutant: filter-sterile supernatant of dssAB mutant cultivated in XVM2 (OD600 = 0.4); for peptide detected by mass spectrometry after incubation in supernatant of the R179 dssAB mutant / peptide detected by mass spectrometry after incubation in supernatant of wild-type R179: LC-MS MS1 peak area; for peptide detected by mass spectrometry after incubation in supernatant of wild-type R179: filter-sterile supernatant of wild-type R179 cultivated in XVM2 minimal medium (OD600 = 0.4), light chamber, n = 3 culture supernatants; for Log10(total_area_MS1) / percent_rel_axenic: incubation 1h; for Log10(total_area_MS1): MS1 precursor area; for percent_rel_axenic: peptide relative to axenic; for Total_area MS1 of identified AtPep1 cleavage product (acetylated […]): 1 µM AtPep1, LC-MS [M+2H]; for Total_area MS1 (intact flg22): 1 µM, LC-MS [M+2H]
Description: Elicitors were also supplemented into the medium prior to solidification at a final concentration of 1 µM. The flg22 ([…]) and AtPep1 ([…]) peptides were synthesized by EZbiolab. elf18^R179 (Ac-[…]) and elf18 (Ac-[…]) were synthesized by GenScript and EZbiolab, respectively. For inoculation with the bacterial supernatant, bacteria were cultivated overnight in XVM2 minimal medium (20 mM NaCl, 10 mM (NH4)2SO4, 5 mM MgSO4, 1 mM CaCl2, 0.16 mM KH2PO4, 0.32 mM K2HPO4, 0.01 mM FeSO4, 10 mM fructose, 10 mM sucrose, 0.03% Casamino acids, pH 6.7)[76] to a final concentration of OD600 = 0.4. Bacteria were pelleted by centrifugation (11,600 g, 2 min), and the supernatant was sterile-filtered using filter units with MF-Millipore membrane (0.22 µm; Millex). The supernatant was incubated in boiling water for 30 min for heat treatment. Then, 25 ml of 1× MS with 20 g l^−1 Bacto Agar was mixed with 25 ml of supernatant prior to medium solidification and poured into square petri dishes. Sterilized seeds were placed on solidified agar in square petri dishes and vertically incubated for 14 days.
Bacterial supernatants were prepared as described in ‘Agar-based cultivation of axenic plants and co-cultivation with bacteria, bacterial supernatants and elicitors’. Here, additionally, the peptides dRGF1 (DYSNPGHHP-Hyp-RHN) and PSY1 (D-Y(SO3H)-[…]-Hyp-Hyp-S) synthesized by Scilight Peptide were incubated for 1 h with 1 µM of peptides in a plant cultivation light chamber (day-light condition; see ‘Plant cultivation conditions’), and the samples were frozen at −20 °C until further processing. For the investigation of AtPep1 degradation, the AtPep1 peptide was first modified by acetylation (six to seven times). To this end, 100-µl aliquots of peptides were treated with 10 µl of NHS acetate solution (1 M NHS acetate in 50% ACN/PBS) and incubated for 30 min with shaking. The reaction was quenched by the addition of 100 µl of 100 mM Tris-HCl (pH 8.5) and incubated for 10 min. For comparison of the non-acetylated peptides with the above-described modified AtPep1 peptides, aliquots of the non-acetylated peptides were processed as described above, but without the modifying NHS reaction. To this end, 100-µl aliquots of the sample were mixed with 100 µl of PBS buffer (137 mM NaCl, 2.7 mM KCl, 10 mM Na2HPO4, 1.8 mM KH2PO4; pH 7.4). The samples were then further diluted with 100 µl of 100 mM Tris-HCl (pH 8.5) and incubated for 10 min. All samples were acidified with 5 µl of TFA and desalted using StageTips with C18 Empore disk membranes (3M)[109]. The samples were dried in a vacuum evaporator and dissolved in 10 µl of 2% ACN (0.1% TFA for analysis).
The samples were analysed using an EASY-nLC 1200 (Thermo Fisher) coupled to a QExactive Plus mass spectrometer (Thermo Fisher). Peptides were separated on 16-cm frit-less silica emitters (New Objective, 75 µm inner diameter), packed in-house with reversed-phase ReproSil-Pur C18 AQ 1.9 µm resin (Dr. Maisch). Peptides were loaded on the column and eluted for 50 min using a segmented linear gradient of 5% to 95% solvent B (0 min, 5% B; 0–5 min, 15% B; 5–35 min, 50% B; 35–45 min, 95% B; 45–50 min, 95% B) (solvent A: 0% ACN, 0.1% FA; solvent B: 80% ACN, 0.1% FA) at a flow rate of 300 nl min^−1. Mass spectra were acquired in data-dependent acquisition mode with a TOP10 method. Mass spectrometry spectra were acquired in the Orbitrap analyser with a mass range of 300–1,500 m/z at a resolution of 70,000 full width at half maximum (FWHM) and a target value of 3 × 10^6 ions. Precursors were selected with an isolation window of 1.3 m/z. Higher-energy collision dissociation (HCD) fragmentation was performed at a normalized collision energy of 25. Tandem mass spectrometry (MS/MS) spectra were acquired with a target value of 5 × 10^5 ions at a resolution of 17,500 FWHM, a maximum injection time of 85 ms and a fixed first mass of 100 m/z. […]

[1] = R179 dssAB mutant supernatant, XVM2 medium, replicate 1
[2] = R179 dssAB mutant supernatant, XVM2 medium, replicate 2
[3] = R179 dssAB mutant supernatant, XVM2 medium, replicate 3
[4] = R179 wt supernatant, XVM2 medium, replicate 2
[5] = R179 wt supernatant, XVM2 medium, replicate 3
[6] = R179 wt supernatant, XVM2 medium, replicate 1
[7] = axenic XVM2 medium control, replicate 1
[8] = axenic XVM2 medium control, replicate 2
[9] = axenic XVM2 medium control, replicate 3
[10] = supernatant of wt R179 in XVM2 (OD600 = 0.4), 1h, replicate 1
[11] = supernatant of wt R179 in XVM2 (OD600 = 0.4), 1h, replicate 2
[12] = supernatant of wt R179 in XVM2 (OD600 = 0.4), 1h, replicate 3

| Substance | peptide detected by mass spectrometry after incubation in supernatant of the R179 dssAB mutant (1 µM peptide, 1 h, n = 3) | peptide detected by mass spectrometry after incubation in supernatant of wild-type R179 (1 µM peptide, 1 h) | Log10(total_area_MS1) [1] | Log10(total_area_MS1) [2] | Log10(total_area_MS1) [3] | percent_rel_axenic [1] | percent_rel_axenic [2] | percent_rel_axenic [3] | Log10(total_area_MS1) [4] | Log10(total_area_MS1) [5] | percent_rel_axenic [6] | percent_rel_axenic [4] | percent_rel_axenic [5] | Log10(total_area_MS1) [7] | Log10(total_area_MS1) [8] | Log10(total_area_MS1) [9] | percent_rel_axenic [7] | percent_rel_axenic [8] | percent_rel_axenic [9] | also measured |
| --- | --- | --- | --- | --- | --- | --- | --- | --- | --- | --- | --- | --- | --- | --- | --- | --- | --- | --- | --- | --- |
| Ac-SKEKFERTKPHVNVGTIG [elf18] | depleted | depleted | 0 | 0 | 0 | 0% | 0% | 0% | 0 | 0 | 0% | 0% | 0% | 10.4989 | 10.552 | 10.527 | 93.8398% | 106.053% | 100.108% | – |
| ATKVKAKQRGKEKVSSGRPGQHN [AtPep1] | depleted | depleted | 6.423 | 6.556 | 5.255 | 0.0095% | 0.0129% | 0.0006% | 5.86 | 6.66 | 0.086% | 0.0026% | 0.0164% | 10.4254 | 10.4615 | 10.4458 | 95.7106% | 103.993% | 100.296% | traces of AtPep1 detected after incubation in R179 supernatants (1 µM peptide, 1 h, R179 supernatant in XVM2, AtPep1 acetylated before LC-MS): < 0.01%; Log10(total_area_MS1) [6]: 7.379; Total_area MS1 of identified AtPep1 cleavage product (acetylated […]) (supernatant of R179 dssAB mutant in XVM2 (OD600 = 0.4), 1h, replicate 1): 2.38E+09; Total_area MS1 of identified AtPep1 cleavage product (acetylated […]) (supernatant of R179 dssAB mutant in XVM2 (OD600 = 0.4), 1h, replicate 2): 1.79E+09; Total_area MS1 of identified AtPep1 cleavage product (acetylated […]) (supernatant of R179 dssAB mutant in XVM2 (OD600 = 0.4), 1h, replicate 3): 2.15E+09; Total_area MS1 of identified AtPep1 cleavage product (acetylated […]) [10]: 1.79E+09; Total_area MS1 of identified AtPep1 cleavage product (acetylated […]) [11]: 1.66E+09; Total_area MS1 of identified AtPep1 cleavage product (acetylated […]) [12]: 1.89E+09 |
| QRLSTGSRINSAKDDAAGLQIA [flg22] | efficient and rapid (1 h) proteolytic degradation | efficient and rapid (1 h) proteolytic degradation | 0 | 0 | 0 | 0% | 0% | 0% | 0 | 0 | 0% | 0% | 0% | – | 8.543 | 8.745 | – | 75.7327% | 120.41% | peptide detected by mass spectrometry after incubation in heat-treated supernatant of wild-type R179 (1 µM peptide, 1 h, supernatant boiled 30 min, XVM2, LC-MS MS1 peak area, n = 3): detected; Total_area MS1 (intact flg22) (axenic XVM2 medium, 1h, replicate 2): 3.04E+08; Total_area MS1 (intact flg22) (axenic XVM2 medium, 1h, replicate 3): 4.20E+08; Total_area MS1 (intact flg22) (heat-treated (HK-wt) supernatant of wt R179 in XVM2, 1h, replicate 1): 1.96E+09; Total_area MS1 (intact flg22) (heat-treated (HK-wt) supernatant of wt R179 in XVM2, 1h, replicate 2): 3.13E+09; Total_area MS1 (intact flg22) (heat-treated (HK-wt) supernatant of wt R179 in XVM2, 1h, replicate 3): 9.82E+08; Total_area MS1 (intact flg22) [10]: 0.00E+00; Total_area MS1 (intact flg22) [11]: 0.00E+00; Total_area MS1 (intact flg22) [12]: 0.00E+00 |

Reference: paper PMC11928319 (Nature Plants, 2025)
